In data set [1] the target is T1, Hv1 WT (Homo sapiens, UniProt Q96D96).
T1 sequence (Q96D96 1-273): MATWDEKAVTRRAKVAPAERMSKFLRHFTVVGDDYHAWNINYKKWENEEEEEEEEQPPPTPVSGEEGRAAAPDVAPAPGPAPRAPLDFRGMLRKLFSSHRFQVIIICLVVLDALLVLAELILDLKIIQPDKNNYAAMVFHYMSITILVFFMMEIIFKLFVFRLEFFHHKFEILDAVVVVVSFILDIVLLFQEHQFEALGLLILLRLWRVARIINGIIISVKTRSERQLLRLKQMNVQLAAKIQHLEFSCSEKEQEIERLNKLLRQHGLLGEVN
The class given is cell-based. As to conditions: for IC50: IC50 ± SE, inside-out patch, +120 mV, pHin = pHout = 6.0; for Inhibition of Hv1 WT (comparison of potency): compounds tested at 50 µM, Fig. 5 E.

The target in another data set is T2, Hv1 F150A (Homo sapiens, UniProt Q96D96, F150A).
T2 sequence (Q96D96 1-273 F150A): T1 sequence (Q96D96 1-273) with F150A
The data set can be described thus: Inhibition of proton currents, inside-out patch clamp, Hv1 F150A. The class given is cell-based.

Data set [2] is described as follows: Solubility in recording solution. The conditions noted are these: concentrations >1 mM. The data set is classed as physicochemical.
Data set [3] deals with T1, Hv1 WT. The conditions noted are these: dimeric Hv1; ref Hong et al., 2015; cited from earlier work.

Residue numbers refer to the chain shown, from its start. Read-outs that look alike come from different tables or passages of the source. Bounds are passed on as bounds.

In the case of `Nc1nc2ccccc2[nH]1` [ABI, 2-aminobenzimidazole], the IC50 is 553 ± 43 µM at Hv1 WT [1] (Hv1 WT) and 0.018 ± 0.001 µM at Hv1 F150A. Moreover, the “Inhibition of Hv1 F150A (comparison with ABTA)” value at Hv1 F150A (ABI at 100 nM versus ABTA at 500 nM) is reported as “much larger inhibition than ABTA”. Further, the “Inhibition of Hv1 F150A” value on Hv1 F150A (at 500 nM) is on record as “saturated”.
Turning to `Nc1nc2cc(F)c(F)cc2[nH]1` [ABIF2, 5,6-difluoro-1H-1,3-benzodiazol-2-amine], the values for the IC50 against Hv1 WT [1] (Hv1 WT) and against Hv1 F150A were 244 ± 19 µM and 0.012 ± 0.001 µM, respectively.
In the case of `Nc1nc2c(F)c(F)c(F)cc2[nH]1` [ABIF3, 4,5,6-trifluoro-1H-1,3-benzodiazol-2-amine], the IC50 against Hv1 WT [1] (Hv1 WT) turned out to be 699 ± 45 µM; at Hv1 F150A it was 0.093 ± 0.006 µM. For the same compound, in data set [2], the “Solubility under tested conditions” value is listed as “not soluble at higher concentrations”.
With `Nc1nc2c(F)cccc2[nH]1` [ABIFα, 4-fluoro-1H-1,3-benzodiazol-2-amine], the IC50 against Hv1 WT [1] (Hv1 WT) was found to be 729 ± 56 µM; against Hv1 F150A, 0.04 ± 0.001 µM.
Taken in the same sequence, the figures for `Nc1nc2cc(F)ccc2[nH]1` [ABIFβ, 6-fluoro-1H-1,3-benzodiazol-2-amine] were 312 ± 17 µM and 0.013 ± 0.001 µM.
Consider `N=C(N)Nc1nc2ccccc2s1` [GBTA, 2-guanidino-benzothiazole], for which, on Hv1 WT [3], the Hill coefficient was over 1.
Regarding `Cc1[nH]c(N)nc1CCC(=O)c1cc(F)cc(F)c1.Cl` [HIF, 3-(2-amino-5-methyl-1H-imidazol-4-yl)-1-(3,5-difluorophenyl)propan-1-one hydrochloride], the “IC50,HIFNF/IC50,HIF” value on Hv1 WT [1] (Hv1 WT) is reported as about 5.4; at Hv1 F150A (Hv1 F150A), about 7.0. Moreover, 13 ± 1 µM corresponded to half-maximal inhibition against Hv1 WT [1] (Hv1 WT) (IC50).
Regarding `Cc1[nH]c(N)nc1/C=C/C(=O)c1cc(F)cc(F)c1.Cl` [HIFEN, (2E)-3-(2-amino-5-methyl-1H-imidazol-4-yl)-1-(3,5-difluorophenyl)prop-2-en-1-one hydrochloride], the “h ± SE (Hill coefficient)” value at Hv1 WT [1] (Hv1 WT (dimeric), fit with Hill equation) is about 1.5. For the same compound, the “Inhibition of Hv1 WT (comparison of potency)” value at Hv1 WT [1] (50 µM) is listed as “slightly more potent than HIF”.
On to `Cc1[nH]c(N)nc1CCC(=O)c1ccccc1.Cl` [HIFNF, 3-(2-amino-5-methyl-1H-imidazol-4-yl)-1-phenylpropan-1-one hydrochloride], for which the “IC50,ABI/IC50,HIFNF” value was about 7.7 at Hv1 WT [1] (Hv1 WT) and about 0.05 against Hv1 F150A (Hv1 F150A).
On to `Cc1[nH]c(N)nc1CCC(O)c1cc(F)cc(F)c1.Cl` (stereo not shown) [HIFOH, 3-(2-amino-5-methyl-1H-imidazol-4-yl)-1-(3,5-difluorophenyl)propan-1-ol hydrochloride], for which, on Hv1 WT [1], the “Inhibition of Hv1 WT (comparison of potency)” value is “less effective at reducing the proton current than HIF, HIFNH, and HIFEN”.

Source of the values: publication PMC8263924 (The Journal of General Physiology, 2021).
